Source: patent US8394391B2, “Drug delivery vehicle that mimics viral properties” (University of Utah Research Foundation, priority 2007, dated 2013)

Legend:
Assay type in all cases: cell-based, human
A2780/AD cells [1] = assay: MTT cell cytotoxicity, drug-resistant A2780/AD cells; details: DOX equivalent 5 μg/ml, 48 hours, pH 7.4
Protocol: (§1) A2780 and A2780/AD cells suspended in RPMI 1640 medium (200 μl) were seeded in a 96-well plate and cultured for 24 hours before testing. Free DOX (5 μg/ml) or equivalent DOX-loaded samples (virogels and control NPs) were added to the medium-removed 96-well plate for cell cytotoxicity tests. The pH of the culture medium was adjusted to pH 7.4 or pH 6.8 for 48 hours during the test, as described in A. Patchornik et al., supra. Cell cytotoxicity was measured using the tetrazolium salt MTT assay. E. S. Lee, K. Na & Y. H. Bae, 5 Nano Lett. 325-329 (2005); E. S. Lee, K. Na & Y. H. Bae, 103 J. Control. Release 405-418 (2005).

A2780/AD cells [2] = assay: Migration to neighboring cells in co-culture (confocal slice images); details: for secondary infection of co-cultured untreated cells: 20 hours co-culture
Protocol: Experiments were conducted to verify migration of virogels to neighboring cells. Cells grown on glass slide fragments (“plates”) (1×1 cm) were pre-treated with free DOX (10 μg/ml) or equivalent DOX-loaded virogels or NPs (controls), E. S. Lee, K. Na & Y. H. Bae, Polymeric micelle for tumor pH and folate-mediated targeting, 91 J. Control. Release 103-113 (2003)) for 4 hours. These pretreated cells (A cells) were washed with PBS (pH 7.4) and co-cultured with fresh cells (B-0 cells) on new glass slide fragments for 20 hours in fresh culture medium. Co-culturing was carried out by placing a plate containing A cells and a plate containing B-0 cells next to each other, but separated by 1 mm, in a culture dish such that the A cells and B-0 cells continuously shared fresh culture medium. The A cells served as a potential source for migration of virogels, and the B-0 cells were a potential site for secondary virogel infection.
After the B-0 cells were co-cultured with A cells for 20 hours, such B-0 cells were redesignated as B-1 cells. B-1 cells were then withdrawn from the culture dish and were co-cultured with fresh cells on new glass slide fragments for 20 hours in fresh culture medium. These fresh cells that had been co-cultured with B-1 cells were termed B-2 cells. These B-2 cells were then also withdrawn and co-cultured with fresh cells on new glass slide fragments for 20 hours in fresh culture medium. These fresh cells that had been co-cultured with B-2 cells were termed B-3 cells. Confocal slice images were obtained, as described above, for observing fluorescent DOX in cells. To evaluate the effect of DOX on virogel migration, blank virogels (50 μg/ml) were tested using the same procedure. FITC-labeling (Example 2) was used to visualize the blank virogels.

A2780 cells = assay: MTT cell cytotoxicity, A2780 cells; details: drug-sensitive A2780; DOX equivalent 5 μg/ml; 48 hours; pH 7.4
Protocol: as §1

## COc1cccc2c1C(=O)c1c(O)c3c(c(O)c1C2=O)C[C@@](O)(C(=O)CO)C[C@@H]3O[C@H]1C[C@H](N)[C@H](O)[C@H](C)O1 [free DOX, doxorubicin]
A2780/AD cells [1]
  viability: 80%
A2780/AD cells [2]; 4 hours pre-treatment, DOX 10 μg/ml equivalent (blank virogels 50 μg/ml, FITC)
  distribution of fluorescence within primary treated cells (A cells): only limited fractions of DOX diffusing into cells
A2780/AD cells [2]; FIG. 7 legend, overall
  migration from infected A2780/AD cells to untreated cells: no such migration
A2780/AD cells [2]; first cycle, B-1 cells
  secondary infection of co-cultured untreated cells: No further cell effects
A2780/AD cells [2]; second cycle, B-2 cells
  secondary infection of co-cultured untreated cells: No further cell effects
A2780/AD cells [2]; third cycle, B-3 cells
  secondary infection of co-cultured untreated cells: No further cell effects
A2780 cells
  viability: 30%
